The values below come from patent publication US9416141B2 (University of Washington through its Center for …, priority 2012, dated 2016).

For this experiment, the system named is hair cells. Kind of experiment: Hair cell toxicity assay in zebrafish (neomycin-induced hair cell death, DASPEI staining of neuromasts). It counts as in vivo. To be noted: Danio rerio; for Emax at 25 µM: maximum observed @ 25 μM test compound; for EC50: zebrafish larvae 5-7 dpf, 1 h pre-treatment, then 200 micromolar neomycin + test compound 30 min, read-out: HC50 (concentration that would produce 50% hair cell survival); for Emax at 2.8 µM: maximum observed @ 2.8 μM test compound. A digest of the protocol: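 Zebrafish larvae 5-7 dpf pre-treated 1 h with compound (0.010-25 μM), then 30 min with 200 μM neomycin plus compound. DASPEI stained 10 neuromasts per fish, scored 0-2 (total 0-20), normalised to vehicle controls as % hair cell survival. HC50 linearly interpolated if survival reached ≥50%; HCmax is maximum survival.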

Setting [1] is: 200 micromolar neomycin, read-out: Max HC Protection (HCmax, % hair cell survival).

Take `C#CCCC(=O)NCCCN1CCc2c(sc(NC(=O)Nc3ccc(Cl)cc3)c2C(N)=O)C1` [Example 216, 2-{[(4-chlorophenyl)carbamoyl]amino}-6-[3-(pent-4-ynamido)propyl]-4H,5H,6H,7H-thieno[2,3-c]pyridine-3-carboxamide]: the EC50 was in the range of 1000 to 10000 nM. For the same molecule, under setting [1], the Emax at 25 µM is 97%.

`NC(=O)c1c(NC(=O)Nc2ccc(Cl)cc2)sc2c1CCN(CCCNC(=O)/C=C/c1ccccc1)C2` [Example 217, 2-{[(4-chlorophenyl)carbamoyl]amino}-6-{3-[(2E)-3-phenylprop-2-enamido]propyl}-4H,5H,6H,7H-thieno[2,3-c]pyridine-3-carboxamide]: the EC50 is less than 1000 nM. For the same molecule, the Emax at 2.8 µM under setting [1] is 93%.

Take `NC(=O)c1c(NC(=O)Nc2ccc(Cl)cc2)sc2c1CCN(CCCNC(=O)CCc1ccc(C(F)(F)F)cc1)C2` [Example 218, 2-{[(4-chlorophenyl)carbamoyl]amino}-6-(3-{3-[4-(trifluoromethyl)phenyl]propanamido}propyl)-4H,5H,6H,7H-thieno[2,3-c]pyridine-3-carboxamide]: the EC50 was less than 1000 nM. In addition, the Emax at 2.8 µM under setting [1] came out at 103%.

On to `CCCC[N+]1(C)CCc2c(sc(NC(=O)Nc3ccc(Cl)cc3)c2C(N)=O)C1` (centres unmarked) [Example 219, 6-butyl-3-carbamoyl-2-{[(4-chlorophenyl)carbamoyl]amino}-6-methyl-4H,5H,6H,7H-thieno[2,3-c]pyridin-6-ium], for which the EC50 is less than 1000 nM. The Emax at 25 µM under setting [1] came to 92%.

For the molecule `CC[N+]1(C)CCc2c(sc(NC(=O)Nc3ccc(Br)cc3)c2C(N)=O)C1` (centres unmarked) [Example 220, 2-{[(4-bromophenyl)carbamoyl]amino}-3-carbamoyl-6-ethyl-6-methyl-4H,5H,6H,7H-thieno[2,3-c]pyridin-6-ium], the EC50 is less than 1000 nM. For the same molecule, the Emax at 25 µM under setting [1] amounted to 98%.

On to `CCN1CCc2c(sc(NC(=O)Nc3ccc(C(F)(F)F)cc3)c2C(N)=O)C1` [Example 221, 6-ethyl-2-({[4-(trifluoromethyl)phenyl]carbamoyl}amino)-4H,5H,6H,7H-thieno[2,3-c]pyridine-3-carboxamide], for which the EC50 lay in the range of 1000 to 10000 nM. In addition, under setting [1], the Emax at 25 µM is 68%.

In the case of `CCN1CCc2c(sc(NC(=O)Nc3ccc(Br)cc3)c2C(N)=O)C1` [Example 222, 2-{[(4-bromophenyl)carbamoyl]amino}-6-ethyl-4H,5H,6H,7H-thieno[2,3-c]pyridine-3-carboxamide], the EC50 was in the range of 1000 to 10000 nM. Besides, under setting [1], the Emax at 25 µM came out at 90%.

For `CCN1CCc2c(sc(NC(=O)Nc3ccc4ccccc4c3)c2C(N)=O)C1` [Example 223, 6-ethyl-2-{[(naphthalen-2-yl)carbamoyl]amino}-4H,5H,6H,7H-thieno[2,3-c]pyridine-3-carboxamide], the EC50 was in the range of 1000 to 10000 nM. For the same molecule, under setting [1], the Emax at 25 µM was found to be 104%.

`CCN1CCc2c(sc(NC(=O)Nc3ccc(I)cc3)c2C(N)=O)C1` [Example 224, 6-ethyl-2-{[(4-iodophenyl)carbamoyl]amino}-4H,5H,6H,7H-thieno[2,3-c]pyridine-3-carboxamide]: the EC50 was 1000 to 10000 nM. Besides, where the note is “maximum observed @ 12.5 μM test compound, 200 micromolar neomycin, read-out: Max HC Protection (HCmax, % hair cell survival)”, the Emax at 12.5 µM was 94%.

For `CCN1CCc2c(sc(NC(=O)Nc3ccc(Oc4ccccc4)cc3)c2C(N)=O)C1` [Example 225, 6-ethyl-2-{[(4-phenoxyphenyl)carbamoyl]amino}-4H,5H,6H,7H-thieno[2,3-c]pyridine-3-carboxamide], the EC50 is 1000 to 10000 nM. Moreover, under setting [1], the Emax at 25 µM turned out to be 91%.

Turning to `CCN1CCc2c(sc(NC(=O)Nc3ccc(Cc4ccccc4)cc3)c2C(N)=O)C1` [Example 226, 2-{[(4-benzylphenyl)carbamoyl]amino}-6-ethyl-4H,5H,6H,7H-thieno[2,3-c]pyridine-3-carboxamide], the EC50 lay in the range of 1000 to 10000 nM. Further, the Emax at 8.3 µM (maximum observed @ 8.3 μM test compound, 200 micromolar neomycin, read-out: Max HC Protection (HCmax, % hair cell survival)) was 68%.

In the case of `CCN1CCc2c(sc(NC(=O)Nc3ccc4c(c3)CCCC4)c2C(N)=O)C1` [Example 227, 6-ethyl-2-{[(5,6,7,8-tetrahydronaphthalen-2-yl)carbamoyl]amino}-4H,5H,6H,7H-thieno[2,3-c]pyridine-3-carboxamide], the EC50 lay in the range of 1000 to 10000 nM. For the same molecule, the Emax at 25 µM under setting [1] stood at 80%.

For the molecule `CCN1CCc2c(sc(NC(=O)Nc3ccc(Cl)c4ccccc34)c2C(N)=O)C1` [Example 228, 2-{[(4-chloronaphthalen-1-yl)carbamoyl]amino}-6-ethyl-4H,5H,6H,7H-thieno[2,3-c]pyridine-3-carboxamide], the EC50 was 1000 to 10000 nM. Also, the Emax at 25 µM under setting [1] came to 93%.

`CCN1CCc2c(sc(NC(=O)Nc3ccc(Cl)cc3Cl)c2C(N)=O)C1` [Example 229, 2-{[(2,4-dichlorophenyl)carbamoyl]amino}-6-ethyl-4H,5H,6H,7H-thieno[2,3-c]pyridine-3-carboxamide]: the EC50 was greater than 10000 nM. For the same molecule, the Emax at 25 µM under setting [1] is 54%.

Turning to `CCN1CCc2c(sc(NC(=O)Nc3ccc(OC)cc3)c2C(N)=O)C1` [Example 230, 6-ethyl-2-{[(4-methoxyphenyl)carbamoyl]amino}-4H,5H,6H,7H-thieno[2,3-c]pyridine-3-carboxamide], the Emax at 25 µM under setting [1] was 48%.
